Reference: US9790225B2, “4-amino-3-phenylamino-6-phenylpyrazolo[3,4-d]pyrimidine derivatives, their manufacture and their use as antiviral active substances” (Scandion Oncology A/S, priority 2011, dated 2017)
Like-named read-outs stand apart in the source and are kept apart here. Marks after values point to notes of the source that are not given here. Blank lines part the entries; values can stand above or below the molecule they belong to.

Tests used:
[1] = In vivo conversion of prodrug to 1H pyrazol compound (serum); settings: in the serum mainly only the final active ingredient (CRCV-340) can be proven
Excerpt: Also covered are pro pharmacons (prodrugs) of the compounds, especially those which are characterized by a substituent on the pyrazol heteroatom in position 1. It has been shown that such types of compounds are converted in vivo to the 1H pyrazol compound. As an example, compounds have been mentioned in respect of which the pyrazol heteroatom in position 1 is substituted by an imino(phenyl)methyl substituent, such as, for example, 1-[Imino(phenyl)methyl]-4-amino-3-(4-trifluormethyl-phenyl)amino-6-phenylpyrazolo[3,4-d]pyrimidine, also designated by the IUPAC name 1-benzylcarboximidoyl-6-phenyl-3-N-[4-(trifluormethyl)phenyl]-1H-pyrazolo[3,4-d]-pyrimidine-3,4-diamine. Here this relates to a by-product of the manufacture of the compound described above, CRCV-340, resulting from the reaction of the compound CRCV-340 with an excess of benzamidine in the reaction mixture and having the following formula: […]
Also included are the salts, solvates or solvates of the salts produced by the above compounds. Within the scope of this invention the preferred salts are physiologically harmless salts of the compounds relating to the invention. […]

[2] = Subacute toxicity in mice over 28 days, intragastric; assay type: in vivo; settings: mice, 12.5, 50 or 200 mg/kg once a day over 28 days
Experimental: Objective: To determine the subacute toxicity in mice in order to reveal possible side effects e.g. on general condition, weight, internal organs and metabolism, which could arise with subacute administration of CRCV-340 over 28 days.
Tests: Thus male and female mice weighing approx. 20 g received 12.5, 50 or 200 mg/kg of the substance CRCV-340 in a Cremophor formulation or the control group received Cremophor once a day over 28 days intragastrically administered via a tube. During the total period of the experiment the condition of the coat and the mucous membranes, the excreta and the general condition were assessed. The recording of the weight took place on days 7, 14, 21 and 28. Approx. 24 hrs. after the last substance dose the sense of direction of the animals was examined. The following biochemical parameters in the serum were analysed: protein content, urea, creatinine, the serum activity of aspartate aminotransferase, alanine aminotransferase and alkaline phosphatase. The haemoglobin concentration, hematocrit, the number of red and white blood cells as well as the platelets was determined in the blood smear. At the end of the experiment the mice were killed under anaesthetic and dissected, the condition of the internal organs were assessed macroscopically, the organ weight determined and samples for subsequent histological tests put into formalin.

CVB3 31-1-93 [3] = test: Lethal mouse model of CVB3-induced myocarditis; assay type: in vivo; settings: CVB3 31-1-93-infected BALB/c mice, 100 mg/kg twice a day over 7 days
Experimental: Investigations: The effect of the development candidate CRCV-340 was examined following testing of the infection dose in the model of the CVB 3-induced myocarditis in 6-7 weeks old male BALB/c mice. In addition CVB3 31-1-93 or CVB3 H3-infected animals received twice a day 100 mg/kg of the substance in 20% PEG-400 in 1% CMC in water (placebo) administered over 7 days. Changes in body weight, general condition and the lethality defined through the surrogate marker 25% loss of body weight served as parameters to evaluate the therapeutic effect. Pseudo-infected, placebo-treated or CRCV-340-treated animals represented the negative control and infected, placebo- or pleconaril-treated animals the positive control over the course of the infection.

plasma protein = test: Plasma protein binding and release in vitro (ADMET); assay type: in vitro ADME; settings: for Binding to plasma protein / Release of plasma protein: in vitro
Excerpt: (§1) Objective: To investigate the Absorption, Distribution, Metabolism, Excretion and Toxicity (abbreviated as: ADMET) of OBR 5-340 in vitro, as well as in vitro tests on the plasma protein binding and the stability in the plasma and in liver microsomes. Tests: The In vitro tests performed with CRCV-340 as well as the data obtained are summarised in Table 2 in comparison with Ref. 2.

[4] = Acute toxicity in mice after single peroral administration; assay type: in vivo; settings: for LD50 at 72 h: mouse, in vivo; for LD50 at 72 h / LD50: single peroral administration
Experimental: Tests: The acute toxicity of the substance CRCV-340 was tested in mice 19.5-20.5 g in weight, which was administered per os 40, 60, 80 or 120 mg substance/mouse (per 5 mice per substance and concentration). This corresponds to a dose of approx. 2 g, 3 g, 4 g or 6 g per kilogramme body weight. The toxic effects observed in the result correlated to the substance dose administered.

[5] = Plasma stability in vitro (ADMET); assay type: in vitro ADME
Excerpt: as §1

[6] = Stability in liver microsomes in vitro (ADMET); assay type: in vitro ADME; settings: for Stability in liver microsomes: in vitro
Excerpt: as §1

[7] = test system: human rhinovirus serotypes (HRV); test: zpE (cytopathic effect) inhibitory test with HRV serotypes; assay type: cell-based; settings: for IC50: Human rhinovirus sp.; for Number of sensitive HRV: of 50 examined serotypes
Excerpt: (§2) Objective: To determine the antiviral effective spectrum of CRCV-340 in respect of 50 different human rhinovirus serotypes and CVB3 patient isolates.
(§3) Tests: The 50 HRV serotypes and 20 clinical CVB3 isolates were reproduced in HeLa, HeLa Wis and/or LF cells, their titre determined and the serotype verified using sequencing. Accordingly zpE (zytopathic effect) inhibitory tests with the HRV or plaque-reductions tests with the CVB3 isolates were established. In the corresponding antiviral tests dose effect investigations with Ref-3 and CRCV-340 were carried out. Tables 5 and 6 give an overview of the mean 50% inhibitory concentrations.

clinical CVB3 isolates = test: Plaque-reduction test with clinical CVB3 isolates; assay type: cell-based; settings: for IC50: Enterovirus B, CVB3; for Number of sensitive CVB3: of 20 clinical isolates, CRCV-340 maximum tested concentration 13.5 μM
Excerpt: as §2, §3

CVB3 31-1-93 [8] = test: Mouse model of CVB3-induced chronic myocarditis; assay type: in vivo; settings: CVB3 31-1-93-infected NMRI mice, 100 mg/kg once or twice a day over 7 days
Experimental: Investigations: The effect of CRCV-340 was investigated in the model of CVB 3-induced myocarditis in 8-week old male NMRI mice. In addition CVB3 31-1-93 or CVB3 H3-infected animals received once or twice a day 100 mg/kg of the substance in 50% or 20% PEG-400 in 1% CMC in water (placebo) administered over 7 days. Parameters to evaluate the therapeutic effect included changes in body weight, general condition, virus titre in heart and pancreas tissue as well as histopathological changes in the heart and pancreas. Pseudo-infected, placebo-treated or CRCV-340-treated animals served as a negative control and infected, placebo- or pleconaril-treated animals as a positive control over the course of the infection.

[9] = Pharmacokinetics in mice, single per os application, HPLC of plasma; assay type: in vivo; settings: for half-life / AUC(0-inf) / Tmax / AUC(0-t) / Cmax / MRT: mouse, po; for half-life: read-out: T1/2 (half life) (converted); for AUC(0-inf): read-out: AUC0-∞ (area under curve); for Tmax: read-out: Tmax (time to reach the maximum concentration in the blood); for AUC(0-t): read-out: AUC0-t (area under curve); for Cmax: read-out: Cmax (maximum concentration in the blood); for MRT: read-out: MRT (mean residence time)
Experimental: Tests: Substance and reference substance were applied respectively once in a concentration of 100 mg/kg KG, in 0.5 ml of a 10% Cremophor solution per os to the mice, After 0.5, 1, 2, 3, 4, 5, 6 and 7 hrs serum was taken and by means of HPLC analysis the concentrations of CRCV-340, Ref-2 and Ref-3 determined in the plasma of the mice.
Using the substance concentrations in the blood plasma determined by HPLC the pharmacokinetic parameters of the substances were calculated using the computer program ESTRIP (Table 3).

[10] = in vivo; cited from earlier work
[11] = in vivo; cited from earlier work; remark: listed apart in the source
[12] = single peroral dose 40 mg/mouse
[13] = single peroral dose 60 mg/mouse
[14] = single peroral dose 80 mg/mouse
[15] = single peroral dose 120 mg/mouse
[16] = read-out: IC50 Pleconaril-resistant HRV (n = 5), mean
[17] = read-out: IC50 Pleconaril-sensitive HRV (n = 45), mean
[18] = read-out: IC50 all HRV (n = 50), mean
[19] = mean over 19 pleconaril-sensitive isolates, read-out: IC50 Pleconaril-sensitive CVB3 (n = 19), mean
[20] = mean over all 20 clinical isolates, read-out: IC50 all CVB3 (n = 20), mean
[21] = the one pleconaril-resistant isolate, read-out: IC50 Pleconaril-resistant CVB3 (n = 1)
[22] = mice, single intragastric 100 mg/kg
[23] = plasma, mice, single intragastric 100 mg/kg

SMILES: N=C(c1ccccc1)n1nc(Nc2ccc(C(F)(F)F)cc2)c2c(N)nc(-c3ccccc3)nc21 [CRCV-340 prodrug, 1-[Imino(phenyl)methyl]-4-amino-3-(4-trifluormethyl-phenyl)amino-6-phenylpyrazolo[3,4-d]pyrimidine]
Conversion in vivo into the target compound [1]: very easily converted into the target compound

SMILES: Nc1nc(-c2ccccc2)nc2[nH]nc(Nc3ccc(C(F)(F)F)cc3)c12 [CRCV-340, 4-amino-3-(4-trifluormethyl-phenyl)amino-6-phenylpyrazolo[3,4-d]pyrimidine]
Tolerance on subacute administration [2]: extremely good tolerance
Therapeutic effect (body weight, general condition, lethality) (CVB3 31-1-93 [3]): effective
Release of plasma protein, comparison in words (plasma protein; in comparison with Ref-2): increased release of plasma protein
Binding to plasma protein (plasma protein): 96.7%
Release of plasma protein (plasma protein): 122.3%
LD50 at 72 h [4]: 3120 mg/kg
LD50 [4]: 62.4 mg/mouse
Dead/Surviving 72 hrs after administration [4, 12]: 1/5
Dead/Surviving 72 hrs after administration [4, 13]: 1/5
Dead/Surviving 72 hrs after administration [4, 14]: 3/5
Dead/Surviving 72 hrs after administration [4, 15]: 5/5
Plasma stability [5]: 100.0%
Stability in liver microsomes, comparison in words ([6]; compared with Ref-2 / state-of-the-art substances): better stability in liver microsomes
Stability in liver microsomes [6]: 112.0%
Effective spectrum in respect of HRV in comparison to Ref-3 ([7]; 50 HRV serotypes): significantly broader
IC50 [7, 16]: 22.6 µM
IC50 [7, 17]: 26.1 µM
IC50 [7, 18]: 25.7 µM
Number of sensitive HRV [7]: 49
IC50 (clinical CVB3 isolates; [19]): 5.16 µM
IC50 (clinical CVB3 isolates; [20]): 4.97 µM
IC50 (clinical CVB3 isolates; [21]): 1.39 µM
Number of sensitive CVB3 (clinical CVB3 isolates): 18*
Therapeutic effect (body weight, general condition, virus titre in heart and pancreas, histopathology) (CVB3 31-1-93 [8]): effective
Bioavailability in mice, comparison in words ([9]; compared with Ref-2 and Ref-3 / state-of-the-art substances): significantly better bioavailability
Cmax (maximum concentration in the blood) [9, 22]: 1.2544 µg/mL
MRT (mean residence time) [9, 22]: 3.54 h
half-life ([9]; in vivo, mice, single intragastric 100 mg/kg): 3.54 h
AUC(0-inf) [9, 23]: 9.6 µg·h/mL
Tmax [9, 23]: 3 h

melting point: 272 to 274 °C
SMILES: Nc1nc(-c2cc(C(F)(F)F)cc(C(F)(F)F)c2)nc2[nH]nc(Nc3ccc(Cl)cc3)c12 [MS-115]

melting point: 271 to 273 °C
SMILES: Nc1nc(-c2ccccc2C(F)(F)F)nc2[nH]nc(Nc3ccc(Cl)cc3)c12 [MS-116]

melting point: 230 to 232 °C
SMILES: Nc1nc(-c2cccc(C(F)(F)F)c2)nc2[nH]nc(Nc3ccccc3)c12 [MS-117]

SMILES: Nc1nc(-c2ccccc2)nc2[nH]nc(Nc3ccccc3)c12 [Ref-2, 4-amino-3-(phenylamino)-6-phenylpyrazolo[3,4-d]pyrimidine]
Binding to plasma protein (plasma protein): 99.5%
Release of plasma protein (plasma protein): 61.0%
LD50 at 72 h [4]: 3930 mg/kg
LD50 [4]: 78.6 mg/mouse
Dead/Surviving 72 hrs after administration [4, 12]: 0/5
Dead/Surviving 72 hrs after administration [4, 13]: 1/5
Dead/Surviving 72 hrs after administration [4, 14]: 3/5
Dead/Surviving 72 hrs after administration [4, 15]: 4/5
Plasma stability [5]: 117.0%
Stability in liver microsomes [6]: 32.0%
AUC(0-t) [9, 23]: 2.35 µg·h/mL
AUC(0-inf) [9, 23]: 2.73 µg·h/mL
Cmax [9, 23]: 1.3 µg/mL
MRT [9, 23]: 2.14 h
half-life [9, 23]: 2.96 h
Tmax [9, 23]: 1 h

SMILES: Nc1nc(-c2ccccc2)nc2[nH]nc(Nc3ccc(Cl)cc3)c12 [Ref-3, 4-amino-3-(4-chlorphenyl)amino-6-phenylpyrazolo[3,4-d]pyrimidine]
IC50 [7, 16]: 0.07 µM
IC50 [7, 17]: 18.5 µM
IC50 [7, 18]: 16.1 µM
Number of sensitive HRV [7]: 23
IC50 (clinical CVB3 isolates; [19]): 0.71 µM
IC50 (clinical CVB3 isolates; [20]): 0.68 µM
IC50 (clinical CVB3 isolates; [21]): 0.13 µM
Number of sensitive CVB3 (clinical CVB3 isolates): 20
AUC(0-t) [9, 23]: 1.09 µg·h/mL
AUC(0-inf) [9, 23]: 1.09 µg·h/mL
Cmax [9, 23]: 0.424 µg/mL
MRT [9, 23]: 2.44 h
half-life [9, 23]: 1.47 h
Tmax [9, 23]: 0.5 h

melting point: 262 to 263 °C
SMILES: Nc1nc(-c2ccccc2)nc2[nH]nc(Nc3ccc(F)cc3)c12 [Ref-5, 4-amino-3-[(4-fluorophenyl)amino]-6-phenylpyrazolo[3,4-d]pyrimidine]

SMILES: Cc1cc(CCCCCCCOc2ccc(C3=NCCO3)cc2)on1 [disoxaril]
Bioavailability [10]: low bioavailability
Metabolisation and excretion [11]: fast metabolisation and excretion

SMILES: Cc1cc(CCCOc2c(C)cc(-c3noc(C(F)(F)F)n3)cc2C)on1 [pleconaril]
Bioavailability [10]: very good oral bioavailability
Therapeutic effect (body weight, general condition, lethality) (CVB3 31-1-93 [3]): In contrast to the placebo and pleconaril CRCV-340 was effective
Therapeutic effect (body weight, general condition, virus titre in heart and pancreas, histopathology) (CVB3 31-1-93 [8]): in contrast to the placebo and pleconaril CRCV-340 was effective
